Measured values from patent US20120034613A1, “Apparatus and Method for Testing Relationships Between Gene Expression and Physical Appearance of Skin” (NSE Products, Inc., priority 2010, published 2012).

Tested on: facial skin
Experiment: Clinical investigator grading of facial attributes, 9-point ordinal scale, 12 week clinical study
Assay type: in vivo, human
Conditions: for Cheek Wrinkles clinical grading Mean: Baseline mean 2.41; for Under-Eye Area Wrinkles clinical grading Mean: Baseline mean 3.19; for Crows Feet Wrinkles clinical grading Mean: Baseline mean 3.29; for Face Tactile Roughness/Smoothness clinical grading Mean: Baseline mean 3.48; for Face Fine Lines (Overall) clinical grading Mean: Baseline mean 4.29; for Face Pore Size clinical grading Mean: Baseline mean 4.41; for Face Global Firmness Appearance clinical grading Mean: Baseline mean 5.03; for Face Mottled Pigmentation clinical grading Mean / Face Uneven Skin Tone clinical grading Mean: Baseline mean 5.05; for Face Jawline Contour clinical grading Mean: Baseline mean 5.16; for Face Overall Appearance clinical grading Mean: Baseline mean 5.47; for Face Radiance clinical grading Mean: Baseline mean 5.81
From the text: At baseline (Visit 1), each prospective subject completed an Eligibility and Health Questionnaire, and read and signed a Confidentially Agreement, a Photography Release Form and an Informed Consent Agreement. Each subject was explained the type of study, the detailed procedures and materials to be tested, along with any known adverse reactions that may result from participation. Subjects arrived at the clinic having refrained from applying any moisturizer to the face at least 3 to 5 days prior to visit and having cleansed the face to remove all makeup at least 30 minutes prior to visit. Subjects were consequently not allowed to use any other topical cosmeceuticals, topical retinoid, or moisturizers during the 12 week duration of the study. Subjects used the study product on their face twice daily for 12 weeks. Ordinal grading on a 9-point scale (0=none, 1-3=mild, 4-6=moderate, 7-9=severe) of facial fine lines, mottled pigmentation, uneven skin tone, tactile roughness, global firmness appearance, jaw-line contour, radiance and overall appearance was performed by investigator at baseline, week 1, week 4, week 8 and week 12. Digital high-resolution photography was performed on the front, right and left sides of the face. Each image was taken while the subject's eyes were open. Each subject's baseline photograph was compared to each post-baseline photograph to ensure consistent placement and lighting. Color standards were imaged prior to each study visit. All clinical and corneometer measurements and evaluations were taken at baseline, week 1 (visit 2), week 4 (visit 3), week 8 (visit 4) and week 12 (visit 5). Ultrasound and cutometer measurements and evaluations were taken at baseline, week 4 (visit 3), week 8 (visit 4) and week 12 (visit 5). Completed patient's diaries were reviewed for compliance at each visit. Mean clinical grading and instrumentation scores at each visit were statistically compared to baseline scores using paired t-test. Changes from baseline were considered significant at the p≦0.05 level. Mean percent change from baseline and incidence of positive responders were calculated for all attributes. Comparisons, based on the average from baseline, were made between the test materials using analysis of variance (ANOVA).

OCc1ccccc1O[C@@H]1O[C@H](CO)[C@@H](O)[C@H](O)[C@H]1O [Salicin, 2-(Hydroxymethyl)phenyl β-D-glucospyranoside]
Cheek Wrinkles clinical grading Mean (Week 1): 2.29 | Under-Eye Area Wrinkles clinical grading Mean (Week 1): 3.07 | Crows Feet Wrinkles clinical grading Mean (Week 1): 3.21 | Face Tactile Roughness/Smoothness clinical grading Mean (Week 1): 2.41 | Face Fine Lines (Overall) clinical grading Mean (Week 1): 4.14 | Face Pore Size clinical grading Mean (Week 1): 4.30 | Face Global Firmness Appearance clinical grading Mean (Week 1): 5.04 | Face Mottled Pigmentation clinical grading Mean (Week 1): 5.05 | Face Uneven Skin Tone clinical grading Mean (Week 1): 5.05 | Face Jawline Contour clinical grading Mean (Week 1): 5.14 | Face Overall Appearance clinical grading Mean (Week 1): 5.21 | Face Radiance clinical grading Mean (Week 1): 5.20 | Cheek Wrinkles clinical grading % Change (Week 1 vs Baseline): (−1.5%) | Crows Feet Wrinkles clinical grading % Change (Week 1 vs Baseline): (−0.5%) | Face Fine Lines (Overall) clinical grading % Change (Week 1 vs Baseline): (−3.7%) | Face Global Firmness Appearance clinical grading % Change (Week 1 vs Baseline): (0.3%) | Face Jawline Contour clinical grading % Change (Week 1 vs Baseline): (0.0%) | Face Mottled Pigmentation clinical grading % Change (Week 1 vs Baseline): (−0.7%) | Face Overall Appearance clinical grading % Change (Week 1 vs Baseline): (−4.2%) | Face Pore Size clinical grading % Change (Week 1 vs Baseline): (−2.4%) | Face Radiance clinical grading % Change (Week 1 vs Baseline): (−11.0%) | Face Tactile Roughness/Smoothness clinical grading % Change (Week 1 vs Baseline): (−30.7%) | Face Uneven Skin Tone clinical grading % Change (Week 1 vs Baseline): (−0.7%) | Under-Eye Area Wrinkles clinical grading % Change (Week 1 vs Baseline): (−1.7%) | Cheek Wrinkles clinical grading Mean (Week 4): 2.26 | Under-Eye Area Wrinkles clinical grading Mean (Week 4): 2.79 | Crows Feet Wrinkles clinical grading Mean (Week 4): 3.00 | Face Tactile Roughness/Smoothness clinical grading Mean (Week 4): 2.02 | Face Fine Lines (Overall) clinical grading Mean (Week 4): 3.76 | Face Pore Size clinical grading Mean (Week 4): 4.05 | Face Global Firmness Appearance clinical grading Mean (Week 4): 4.86 | Face Mottled Pigmentation clinical grading Mean (Week 4): 4.74 | Face Uneven Skin Tone clinical grading Mean (Week 4): 4.74 | Face Jawline Contour clinical grading Mean (Week 4): 5.10 | Face Overall Appearance clinical grading Mean (Week 4): 4.91 | Face Radiance clinical grading Mean (Week 4): 4.90 | Cheek Wrinkles clinical grading % Change (Week 4 vs Baseline): (−6.4%) | Crows Feet Wrinkles clinical grading % Change (Week 4 vs Baseline): (−8.9%) | Face Fine Lines (Overall) clinical grading % Change (Week 4 vs Baseline): (−12.4%) | Face Global Firmness Appearance clinical grading % Change (Week 4 vs Baseline): (−3.4%) | Face Jawline Contour clinical grading % Change (Week 4 vs Baseline): (−1.0%) | Face Mottled Pigmentation clinical grading % Change (Week 4 vs Baseline): (−6.1%) | Face Overall Appearance clinical grading % Change (Week 4 vs Baseline): (−10.0%) | Face Pore Size clinical grading % Change (Week 4 vs Baseline): (−8.2%) | Face Radiance clinical grading % Change (Week 4 vs Baseline): (−15.7%) | Face Tactile Roughness/Smoothness clinical grading % Change (Week 4 vs Baseline): (−42.0%) | Face Uneven Skin Tone clinical grading % Change (Week 4 vs Baseline): (−6.1%) | Under-Eye Area Wrinkles clinical grading % Change (Week 4 vs Baseline): (−12.4%) | Cheek Wrinkles clinical grading Mean (Week 8): 2.12 | Under-Eye Area Wrinkles clinical grading Mean (Week 8): 2.55 | Crows Feet Wrinkles clinical grading Mean (Week 8): 2.71 | Face Tactile Roughness/Smoothness clinical grading Mean (Week 8): 1.43 | Face Fine Lines (Overall) clinical grading Mean (Week 8): 3.47 | Face Pore Size clinical grading Mean (Week 8): 3.86 | Face Global Firmness Appearance clinical grading Mean (Week 8): 4.64 | Face Mottled Pigmentation clinical grading Mean (Week 8): 4.57 | Face Uneven Skin Tone clinical grading Mean (Week 8): 4.57 | Face Jawline Contour clinical grading Mean (Week 8): 4.95 | Face Overall Appearance clinical grading Mean (Week 8): 4.67 | Face Radiance clinical grading Mean (Week 8): 4.72 | Cheek Wrinkles clinical grading % Change (Week 8 vs Baseline): (−12.1%) | Crows Feet Wrinkles clinical grading % Change (Week 8 vs Baseline): (−17.8%) | Face Fine Lines (Overall) clinical grading % Change (Week 8 vs Baseline): (−19.2%) | Face Global Firmness Appearance clinical grading % Change (Week 8 vs Baseline): (−7.8%) | Face Jawline Contour clinical grading % Change (Week 8 vs Baseline): (−4.0%) | Face Mottled Pigmentation clinical grading % Change (Week 8 vs Baseline): (−9.5%) | Face Overall Appearance clinical grading % Change (Week 8 vs Baseline): (−14.5%) | Face Pore Size clinical grading % Change (Week 8 vs Baseline): (−12.5%) | Face Radiance clinical grading % Change (Week 8 vs Baseline): (−18.6%) | Face Tactile Roughness/Smoothness clinical grading % Change (Week 8 vs Baseline): (−58.9%) | Face Uneven Skin Tone clinical grading % Change (Week 8 vs Baseline): (−9.5%) | Under-Eye Area Wrinkles clinical grading % Change (Week 8 vs Baseline): (−20.0%) | Cheek Wrinkles clinical grading Mean (Week 12): 2.02 | Under-Eye Area Wrinkles clinical grading Mean (Week 12): 2.24 | Crows Feet Wrinkles clinical grading Mean (Week 12): 2.48 | Face Tactile Roughness/Smoothness clinical grading Mean (Week 12): 0.98 | Face Fine Lines (Overall) clinical grading Mean (Week 12): 3.10 | Face Pore Size clinical grading Mean (Week 12): 3.71 | Face Global Firmness Appearance clinical grading Mean (Week 12): 4.48 | Face Mottled Pigmentation clinical grading Mean (Week 12): 4.33 | Face Uneven Skin Tone clinical grading Mean (Week 12): 4.34 | Face Jawline Contour clinical grading Mean (Week 12): 4.74 | Face Overall Appearance clinical grading Mean (Week 12): 4.50 | Face Radiance clinical grading Mean (Week 12): 4.59 | Cheek Wrinkles clinical grading % Change (Week 12 vs Baseline): (−16.4%) | Crows Feet Wrinkles clinical grading % Change (Week 12 vs Baseline): (−24.6%) | Face Fine Lines (Overall) clinical grading % Change (Week 12 vs Baseline): (−27.7%) | Face Global Firmness Appearance clinical grading % Change (Week 12 vs Baseline): (−10.9%) | Face Jawline Contour clinical grading % Change (Week 12 vs Baseline): (−8.0%) | Face Mottled Pigmentation clinical grading % Change (Week 12 vs Baseline): (−14.3%) | Face Overall Appearance clinical grading % Change (Week 12 vs Baseline): (−17.6%) | Face Pore Size clinical grading % Change (Week 12 vs Baseline): (−16.0%) | Face Radiance clinical grading % Change (Week 12 vs Baseline): (−21.0%) | Face Tactile Roughness/Smoothness clinical grading % Change (Week 12 vs Baseline): (−71.7%) | Face Uneven Skin Tone clinical grading % Change (Week 12 vs Baseline): (−13.9%) | Under-Eye Area Wrinkles clinical grading % Change (Week 12 vs Baseline): (−29.7%)
